Reference: US9770448B1, “Compositions and methods for treatment of Bowen's disease and related diseases” (priority 2016, dated 2017)

How the values were obtained:
[1] = tested on: HPV+ laryngeal keratinocytes; test: In vitro chloroquine-induced killing of laryngeal keratinocytes (HPV+); assay type: cell-based, human; conditions: two days incubation, visual inspection for survival
Source text: (§1) In addition to the foregoing examples, in vitro experimental data have been obtained which indicate that the compositions and methods of the present disclosure can be used in the treatment of recurrent respiratory papillomatosis (RRPRRP) disease, which is also known as laryngeal papillomatosis. RRP is caused by human papillomavirus (HPV), typically HPV6 and HPV11, and involves formation of generally nonmalignant tumors on the larynx or vocal chords, and can spread to the trachea, bronchi and lungs. HPV^+ and HPV^− laryngeal keratinocytes obtained from a recurrent respiratory papillomatosis patient were expanded on Mitomycin C-treated J2 3T3 feeder cell layers in E media with 10 uM Y27632 (ROCK inhibitor). These cells were then plated without feeder layers in 2.5 uM Y27632 and grown until they reached 90% confluency. At this point, fresh E media without Y27632 was added to the cells with increasing concentrations of chloroquine. Chloroquine concentrations used were 0 ug/ml, 2.5 ug/ml, 25 ug/ml, 250 ug/ml, 2.5 mg/ml and 25 mg/ml. Chloroquine powder (Sigma) was resuspended at 25 mg/ml in E media and was brought to pH 7 with 1N NaOH. Working dilutions were made with full E media. Cells were incubated for two days in chloroquine and then visually inspected for survival, as noted by (a) the presence of cells in the wells and (b) morphology of the cells.

[2] = tested on: HPV- laryngeal keratinocytes; test: In vitro chloroquine-induced killing of laryngeal keratinocytes (HPV-); assay type: cell-based, human; conditions: two days incubation, visual inspection for survival
Source text: as §1

Bowen's disease = conditions: Example 10 patient history; cited from earlier work

Row | SMILES | Chloroquine concentration that cells survived [1] [µg/mL] | Chloroquine concentrations at which cells were killed [1] [µg/mL] | Chloroquine concentration that cells survived [2] [µg/mL] | Chloroquine concentrations at which cells were killed [2] [µg/mL] | Outcome of earlier over the counter drug as stated by patient (Bowen's disease)
1 | CCN(CC)CCCC(C)Nc1ccnc2cc(Cl)ccc12 (racemic) [chloroquine, (RS)—N′-(7-chloroquinolin-4-yl)-N,N-diethyl-pentane-1,4-diamine] | 25 | ≥ 250 | 25 | ≥ 250 | 
2 | O=C(O)C(Cl)(Cl)Cl [TCA, trichloroacetic acid] |  |  |  |  | made the Bowen's disease Lesion worse
